From US20240180895A1, “USE OF KAPPA OPIOID RECEPTOR AGONISTS TO TREAT CARDIOVASCULAR DISEASE” (Board of Supervisors of Louisiana State University and …, priority 2021, published 2024)

Experiments:
Type in all cases: in vivo, rat
[1] = system: conscious Sprague-Dawley rats; assay: Metabolic cage renal excretory studies, oral gavage (Example 3); details: oral gavage, mean±SEM; for Potassium concentration [K+] in cumulative urine / Sodium concentration [Na+] in cumulative urine: cumulative 5-hour urine, same doses; for Total urine output: cumulative urine of 5-hour protocol, nalfurafine 150 μg kg−1, furosemide 50 mg kg−1, HCTZ 5 mg kg−1, amiloride 5 mg kg−1, n=6
Protocol: (§1) Animals: Male Sprague-Dawley (SD) rats (Envigo Labs, Indianapolis, IN), 300-350 g, were individually housed under a 12 h light-dark cycle and allowed tap water and standard rodent diet ad libitum. Rats were randomly assigned to experimental groups for all acute and subacute studies. All procedures were approved by the Louisiana State University Health Sciences Center Institutional Animal Care and Use Committee and conducted in accordance with the National Institutes of Health guidelines for the care and use of animals.
Metabolic Cage Renal Excretory Studies: Rats were placed in metabolic cages (model 18cv, Fenco, Cataumet, MA) for 2 hours to allow for acclimation and voiding of residual urine. Following the acclimation period, rats were volume loaded with 20 cc kg^−1 drug or vehicle (isotonic saline) via oral gavage. Urines were collected each hour over a 5-hour period. Following completion of the study rats were returned to their home cages. […] These points are marked on the figures with number of measurements in parentheses.
(§2) Experimental Design and Analysis: All results are expressed as mean±SEM. […] Means between groups for total urine output, Na^+ concentration, K^+ concentration, and urine osmolality were compared using a Student's t-test. Statistical significance was characterized as P<0.05. Statistics were carried out using Prism 7.05 software (GraphPad Software, Inc., San Diego, CA) and IBM SPSS Statistics (IBM, Armonk, NY).

[2] = system: conscious Sprague-Dawley rats; assay: Acute cardiovascular and renal excretory studies, i.v. bolus (Example 3); details: for Effect on heart rate (HR) / Effect on MAP / Potassium concentration [K+] in cumulative urine / Sodium concentration [Na+] in cumulative urine / Urine osmolality / Total urine output: i.v. bolus; for Effect on heart rate (HR) / Effect on MAP: 90-min protocol; for Effect on MAP: diuretic alone; for Potassium concentration [K+] in cumulative urine / Sodium concentration [Na+] in cumulative urine / Urine osmolality: cumulative 90-min urine, same doses; for Potassium concentration [K+] in cumulative urine / Sodium concentration [Na+] in cumulative urine / Urine osmolality / Total urine output: mean±SEM; for Total urine output: cumulative urine of 90-min protocol, nalfurafine 5 μg kg−1, furosemide 7.5 mg kg−1, HCTZ 2.5 mg kg−1, amiloride 2 mg kg−1, n=6
Protocol: as §1
Surgical Procedures: Aseptic technique was followed for all surgical procedures. On the morning of the experiment, rats were anesthetized with and maintained under inhaled 2% isoflurane, and polyethylene catheters (PE50; BD Diagnostics, Sparks, MD) were surgically inserted into the left femoral vein and left femoral artery for the infusion of saline and/or drug administration and the recording of arterial blood pressure, respectively. Subsequently, a suprapubic incision was made and a flanged polyethylene catheter (PE240; BD Diagnostics, Sparks, MD) was inserted into the bladder, exteriorized, and sutured to surrounding muscle and skin. Rats were then placed in an elevated restrainer (Krowicki & Kapusta, 2011) to recover from surgery and allow collection of urine. When acute experimental protocols were completed, rats were anesthetized via isoflurane and decapitated.
Acute Cardiovascular and Renal Excretory Studies: Following surgery, rats received an i.v. infusion of isotonic saline at 55 μL min^−1 throughout the duration of the experiment and were allowed 4-6 hours to recover from anesthesia. Arterial catheters were connected to a pressure transducer (MLT0670, ADInstruments, Sydney, Australia), which was connected to Powerlab 8/30 (ADInstruments) for recording of pulsatile and mean arterial blood pressure (MAP) and heart rate (HR). Blood pressure and HR were visualized using LabChart software (v8.1.5; ADInstruments). […] Following this control period, drug or vehicle (isotonic saline) was injected into the femoral vein catheter at a volume of 2 cc kg^−1, and urines were collected in 10 minute periods for a span of 90 minutes. […] All groups are n=6. Urine volume was measured gravimetrically, urine sodium and potassium concentrations were measured using flame photometry (model 943; Instrumentation Laboratories, Lexington, MA), and urine osmolality was measured using a vapor pressure osmometer (model 5600; WESCOR, Logan, UT).
as §2

[3] = system: conscious Sprague-Dawley rats; assay: Acute cardiovascular and renal excretory studies with ICV or IV norBNI pretreatment (Example 4)
Protocol: Male Sprague-Dawley rats (Envigo Labs, Indianapolis, IN) were individually housed, allowed tap water and standard rodent diet ad libitum, and kept under a 12-hour light-dark cycle. Rats used in these experiments weighed between 300 and 350 grams and were randomly assigned to experimental groups. All procedures were conducted in accordance with the National Institutes of Health guidelines for the care and use of animals and approved by the Louisiana State University Health Sciences Center Institutional Animal Care and Use Committee.
Aseptic technique was adhered to for all surgeries and detailed surgical methods were followed as previously described.^14 Briefly, 3-5 days before experimentation, rats requiring central ventricle access for administration of drug/vehicle into the brain were anesthetized with ketamine and xylazine and a stainless-steel cannula was stereotaxically implanted into the right lateral cerebral ventricle.^14
On the morning of the experiment, rats were anesthetized and maintained with inhaled 2% isoflurane, and polyethylene catheters were surgically placed into the left femoral artery, left femoral vein, and urinary bladder.^15.16 Following surgery, rats were placed in an elevated restrainer for recovery and collection of urine from an indwelling bladder catheter.^15 After completion of experimental protocols, rats were anesthetized with isoflurane and decapitated.
During stabilization of cardiovascular and renal excretory parameters, rats received an isotonic saline infusion (55 μl/min), which lasted throughout the duration of the experiment. To record mean arterial pressure (MAP) and heart rate (HR), arterial catheters were connected to a pressure transducer (MLT0670, ADInstruments, Sydney, Australia), which was connected to Powerlab 8/30 (ADInstruments) and visualized using LabChart software (v8.1.5; ADInstruments). After one hour of recovery from surgery, rats were pretreated with the KOR antagonist norBNI or isotonic saline vehicle through either an intracerebroventricular (ICV) catheter or intravenous (IV) catheter. […] Next, drug or vehicle (isotonic saline) was injected into the femoral vein and urine samples were collected every 10 minutes during a 90-minute experimental period. The following drug concentrations were used: nalfurafine 5 μg/kg, difelikefalin 10 μg/kg, norBNI 30 mg/kg (IV), norBNI 1 μg/5 μL (ICV). All groups are n=6. Urine sodium and potassium were measured using a flame photometer (model 943; Instrumentation Laboratories, Lexington, MA). Urine volume was measured gravimetrically, and urine osmolality was measured using a vapor pressure osmometer (model 5600; WESCOR, Logan, UT).
All results are expressed as mean±SEM. For determining statistically different changes at time points within a treatment group, means were compared to the control value using 2-way ANOVA with repeated measures and a post hoc Dunnett test following confirmation of a significant F value. For statistically different changes at individual time points between treatment groups, mean values were compared using 2-way ANOVA with repeated measures and a post hoc Sidak test following confirmation of a significant/value. For means between groups for total urine output, urine sodium concentration, urine potassium concentration, and urine osmolality, a Student/test was used. Statistical significance was characterized as P<0.05 and statistics were performed on Prism 7.05 software (GraphPad Software, Inc, San Diego, CA).

SMILES	Potassium concentration [K+] in cumulative urine [1]	Sodium concentration [Na+] in cumulative urine [1]	Total urine output [1]	Duration of the increase in urine flow rate above control ([2]; after i.v. bolus)	Effect on heart rate (HR) [2]	Effect on MAP [2]	Potassium concentration [K+] in cumulative urine [2]	Sodium concentration [Na+] in cumulative urine [2]	Urine osmolality [2]	Total urine output [2]	Time of peak diuresis (urine flow rate) ([2]; after i.v. bolus)	Effect of norBNI pretreatment on the diuresis ([3]; norBNI 1 μg/5 μL ICV before difelikefalin 10 μg/kg IV)	Effect of norBNI pretreatment on the diuresis ([3]; norBNI 1 μg/5 μL ICV before nalfurafine 5 μg/kg IV)	Effect of norBNI pretreatment on the diuresis ([3]; norBNI 30 mg/kg IV before difelikefalin 10 μg/kg IV)	Effect of norBNI pretreatment on the diuresis ([3]; norBNI 30 mg/kg IV before nalfurafine 5 μg/kg IV)
NS(=O)(=O)c1cc2c(cc1Cl)NCNS2(=O)=O [HCTZ, hydrochlorothiazide]	26.50±1.91 μeq ml^−1	119.70±3.04 μeq ml^−1	14.55 ± 0.57 mL	returned to baseline levels by 50-min	did not produce any changes in MAP or HR	did not produce any changes in MAP or HR	14.76±3.12 μeq ml^−1	155.6±8.04 μeq ml^−1	439.3 ± 15.94 mmol/kg	9.22 ± 0.50 mL					
N=C(N)NC(=O)c1nc(Cl)c(N)nc1N [amiloride]	4.02±0.54 μeq ml^−1	130.9±5.32 μeq ml^−1	8.61 ± 0.63 mL	30 min	Heart rate did not change	minimal effects on MAP	0.85±0.19 μeq ml^−1	137.60±6.01 μeq ml^−1	398.3 ± 18.05 mmol/kg	8.42 ± 0.40 mL	10 min				
Oc1ccc2c3c1O[C@H]1c4[nH]c5c(c4C[C@@]4(O)[C@@H](C2)N(CC2CC2)CC[C@]314)C[C@@]1(O)[C@H]2Cc3ccc(O)c4c3[C@@]1(CCN2CC1CC1)[C@H]5O4 [norBNI, norbinaltorphimine]												significantly attenuated the peak increase and duration of the difelikefalin-induced diuresis	markedly attenuated	completely blocked the diuresis	nearly abolished
